# Assay results: patent publication US10479780B2, “Aminopyrazole derivatives” (Chugai Seiyaku Kabushiki Kaisha, priority 2015, dated 2019)
# Key:
# Type in all cases: biochemical
# human Src enzyme = biological target: T1, human Src enzyme (Homo sapiens, UniProt P12931); test: Src enzyme inhibitory activity (time-resolved fluorometry, biotinylated peptide phosphorylation); conditions: biotinylated peptide phosphorylation, read-out: SRC_IC50
# T1 construct: purchased Carna Biosciences, Inc. 08-173
# In short: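 Compounds were tested for blocking tyrosine phosphorylation of a biotinylated peptide substrate by recombinant human Src. Phosphorylated product was quantified by time-resolved fluorometry using europium cryptate and XL665 conjugates, and IC50 was calculated against the compound-free control.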
# human Yes1 enzyme = biological target: T2, human Yes1 enzyme (Homo sapiens, UniProt P07947); test: Yes1 enzyme inhibitory activity (time-resolved fluorometry, biotinylated peptide phosphorylation); conditions: biotinylated peptide phosphorylation, read-out: YES_IC50
# T2 construct: made in house
# In short: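 Inhibition was expressed against a compound-free control to give IC50, using TR-FRET read-out (Eu-cryptate anti-pTyr antibody, streptavidin-XL665).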
# human Lck enzyme = biological target: T3, human Lck enzyme (Homo sapiens, UniProt P06239); test: Lck enzyme inhibitory activity (time-resolved fluorometry, biotinylated peptide phosphorylation); conditions: biotinylated peptide phosphorylation, read-out: LCK_IC50
# T3 construct: purchased Carna Biosciences, Inc. 08-170
# In short: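 Readout pairs a europium cryptate-labelled anti-phosphotyrosine antibody with XL665-streptavidin, measured by time-resolved fluorescence. IC50 derived from percent inhibition against untreated controls.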
# T2 sequence (P07947 whole entry): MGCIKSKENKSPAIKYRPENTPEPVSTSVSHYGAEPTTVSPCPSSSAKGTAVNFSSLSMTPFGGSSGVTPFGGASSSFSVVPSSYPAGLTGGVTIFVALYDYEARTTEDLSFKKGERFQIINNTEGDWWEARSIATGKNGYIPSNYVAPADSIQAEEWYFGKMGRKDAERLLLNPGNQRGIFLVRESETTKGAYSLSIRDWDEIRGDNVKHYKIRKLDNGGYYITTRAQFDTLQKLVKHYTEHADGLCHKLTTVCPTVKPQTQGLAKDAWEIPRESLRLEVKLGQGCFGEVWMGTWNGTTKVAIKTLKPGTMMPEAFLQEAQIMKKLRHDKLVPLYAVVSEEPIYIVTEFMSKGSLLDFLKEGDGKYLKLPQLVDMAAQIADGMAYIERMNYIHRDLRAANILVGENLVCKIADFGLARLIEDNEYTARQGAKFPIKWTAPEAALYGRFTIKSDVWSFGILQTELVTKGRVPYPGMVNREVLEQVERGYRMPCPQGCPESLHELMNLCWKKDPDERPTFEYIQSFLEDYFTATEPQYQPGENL
# T3 sequence (P06239 whole entry): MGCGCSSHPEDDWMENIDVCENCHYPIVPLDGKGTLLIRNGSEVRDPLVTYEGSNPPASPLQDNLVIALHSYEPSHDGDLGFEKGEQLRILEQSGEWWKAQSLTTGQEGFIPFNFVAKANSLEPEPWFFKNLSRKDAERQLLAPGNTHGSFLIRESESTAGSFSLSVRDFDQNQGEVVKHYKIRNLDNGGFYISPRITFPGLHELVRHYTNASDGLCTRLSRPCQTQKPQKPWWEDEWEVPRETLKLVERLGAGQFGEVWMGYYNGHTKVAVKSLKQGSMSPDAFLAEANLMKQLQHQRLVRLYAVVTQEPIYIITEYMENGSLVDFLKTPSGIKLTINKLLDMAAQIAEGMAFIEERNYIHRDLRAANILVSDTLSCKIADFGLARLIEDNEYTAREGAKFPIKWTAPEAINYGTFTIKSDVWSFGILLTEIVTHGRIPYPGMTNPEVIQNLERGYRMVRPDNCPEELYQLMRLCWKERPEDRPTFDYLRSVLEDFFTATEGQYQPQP
# T1 sequence (P12931 whole entry): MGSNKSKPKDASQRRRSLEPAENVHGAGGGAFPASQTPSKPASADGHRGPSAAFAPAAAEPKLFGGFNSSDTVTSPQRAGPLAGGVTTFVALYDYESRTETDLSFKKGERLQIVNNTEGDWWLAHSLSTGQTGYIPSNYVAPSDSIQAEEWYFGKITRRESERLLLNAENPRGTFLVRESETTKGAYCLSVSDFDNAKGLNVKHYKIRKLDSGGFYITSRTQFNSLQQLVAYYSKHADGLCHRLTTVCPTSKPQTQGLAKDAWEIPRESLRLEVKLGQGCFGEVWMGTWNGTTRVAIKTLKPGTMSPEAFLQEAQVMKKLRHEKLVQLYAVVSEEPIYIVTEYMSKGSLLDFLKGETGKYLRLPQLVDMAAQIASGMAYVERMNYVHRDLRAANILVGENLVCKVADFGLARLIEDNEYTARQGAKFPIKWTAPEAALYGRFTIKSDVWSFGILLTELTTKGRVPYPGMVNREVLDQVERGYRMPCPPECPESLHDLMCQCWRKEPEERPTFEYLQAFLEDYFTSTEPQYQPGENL
IC50 (human Src enzyme),IC50 (human Yes1 enzyme),IC50 (human Lck enzyme),Compound
17 nM,0.45 nM,5.8 nM,"Cc1cc(Oc2ccccc2F)ccc1-n1ncc(C(=O)c2cc3cc(OC(F)F)c(NC4CN(S(C)(=O)=O)C4)cc3[nH]2)c1N [Example 4-23-023, [5-amino-1-[4-(2-fluorophenoxy)-2-methylphenyl]pyrazol-4-yl]-[5-(difluoromethoxy)-6-[(1-methylsulfonylazetidin-3-yl)amino]-1H-indol-2-yl]methanone]"
53 nM,7.2 nM,13 nM,"Cc1cc(Oc2ccccc2F)cc(F)c1-n1ncc(C(=O)c2cc3cc(OC(F)F)c(NC4CN(S(C)(=O)=O)C4)cc3[nH]2)c1N [Example 4-23-024, [5-amino-1-[2-fluoro-4-(2-fluorophenoxy)-6-methylphenyl]pyrazol-4-yl]-[5-(difluoromethoxy)-6-[(1-methylsulfonylazetidin-3-yl)amino]-1H-indol-2-yl]methanone]"
30 nM,1.8 nM,5.6 nM,"Cc1cc(Oc2ccccc2F)ncc1-n1ncc(C(=O)c2cc3cc(OC(F)F)c(NC4CN(S(C)(=O)=O)C4)cc3[nH]2)c1N [Example 4-23-025, [5-amino-1-[6-(2-fluorophenoxy)-4-methylpyridin-3-yl]pyrazol-4-yl]-[5-(difluoromethoxy)-6-[(1-methylsulfonylazetidin-3-yl)amino]-1H-indol-2-yl]methanone]"
50 nM,4.5 nM,19 nM,"Cc1cc(Oc2ccccc2F)ncc1-n1ncc(C(=O)c2cc3cc(OC(F)F)c(NC4CCN(S(C)(=O)=O)CC4)cc3[nH]2)c1N [Example 4-23-026, [5-amino-1-[6-(2-fluorophenoxy)-4-methylpyridin-3-yl]pyrazol-4-yl]-[5-(difluoromethoxy)-6-[(1-methylsulfonylpiperidin-4-yl)amino]-1H-indol-2-yl]methanone]"
16 nM,1.9 nM,7.6 nM,"Cc1cc(Oc2ccccc2F)cc(F)c1-n1ncc(C(=O)c2cc3cc(OCC(F)F)c(NC4CN(S(C)(=O)=O)C4)cc3[nH]2)c1N [Example 4-23-027, [5-amino-1-[2-fluoro-4-(2-fluorophenoxy)-6-methylphenyl]pyrazol-4-yl]-[5-(2,2-difluoroethoxy)-6-[(1-methylsulfonylazetidin-3-yl)amino]-1H-indol-2-yl]methanone]"
70 nM,20 nM,41 nM,"Cc1cc(Oc2ccccc2F)cc(F)c1-n1ncc(C(=O)c2cc3cc(OCC(F)F)c(NC4CCN(S(C)(=O)=O)CC4)cc3[nH]2)c1N [Example 4-23-028, [5-amino-1-[2-fluoro-4-(2-fluorophenoxy)-6-methylphenyl]pyrazol-4-yl]-[5-(2,2-difluoroethoxy)-6-[(1-methylsulfonylpiperidin-4-yl)amino]-1H-indol-2-yl]methanone]"
34 nM,4.7 nM,6.1 nM,"Cc1cc(Oc2c(F)cccc2F)ncc1-n1ncc(C(=O)c2cc3cc(OCC(F)F)c(-n4c(C)cc(=O)[nH]c4=O)cc3[nH]2)c1N [Example 4-23-029, 1-{2-{5-amino-1-[6-(2,6-difluorophenoxy)-4-methylpyridin-3-yl]pyrazole-4-carbonyl}-5-(2,2-difluoroethoxy)-1H-indol-6-yl}-6-methylpyrimidine-2,4-dione]"
6.4 nM,1.4 nM,3.8 nM,"Cc1cc(Oc2ccccc2F)ccc1-n1ncc(C(=O)c2cc3cc(OCC(F)F)c(-n4c(C)cc(=O)[nH]c4=O)cc3[nH]2)c1N [Example 4-23-030, 1-[2-[5-amino-1-[4-(2-fluorophenoxy)-2-methylphenyl]pyrazole-4-carbonyl]-5-(2,2-difluoroethoxy)-1H-indol-6-yl]-6-methylpyrimidine-2,4-dione]"
14 nM,1.5 nM,5.2 nM,"Cc1cc(Oc2ccccc2F)ccc1-n1ncc(C(=O)c2cc3cc(OC(F)F)c(-n4c(C)cc(=O)[nH]c4=O)cc3[nH]2)c1N [Example 4-23-031, 1-[2-[5-amino-1-[4-(2-fluorophenoxy)-2-methylphenyl]pyrazole-4-carbonyl]-5-(difluoromethoxy)-1H-indol-6-yl]-6-methylpyrimidine-2,4-dione]"
17 nM,0.58 nM,2.5 nM,"Cc1cc(Oc2c(F)cccc2F)ncc1-n1ncc(C(=O)c2cc3cc(OCC(F)F)c(N4C(=O)NC(C)(C)C4=O)cc3[nH]2)c1N [Example 4-23-032, 3-{2-{5-amino-1-[6-(2,6-difluorophenoxy)-4-methylpyridin-3-yl]pyrazole-4-carbonyl}-5-(2,2-difluoroethoxy)-1H-indol-6-yl}-5,5-dimethylimidazolidine-2,4-dione]"
6.1 nM,0.5 nM,2.1 nM,"Cc1cc(Oc2ccccc2F)ccc1-n1ncc(C(=O)c2cc3cc(OCC(F)F)c(N4C(=O)NC(C)(C)C4=O)cc3[nH]2)c1N [Example 4-23-033, 3-[2-[5-amino-1-[4-(2-fluorophenoxy)-2-methylphenyl]pyrazole-4-carbonyl]-5-(2,2-difluoroethoxy)-1H-indol-6-yl]-5,5-dimethylimidazolidine-2,4-dione]"
54 nM,1.5 nM,6.7 nM,"Cc1cc(Oc2c(F)cccc2F)ncc1-n1ncc(C(=O)c2cc3cc(OC(F)F)c(N4C(=O)NC(C)(C)C4=O)cc3[nH]2)c1N [Example 4-23-034, 3-[2-[5-amino-1-[6-(2,6-difluorophenoxy)-4-methylpyridin-3-yl]pyrazole-4-carbonyl]-5-(difluoromethoxy)-1H-indol-6-yl]-5,5-dimethylimidazolidine-2,4-dione]"
30 nM,0.63 nM,7 nM,"Cc1cc(Oc2ccccc2F)ccc1-n1ncc(C(=O)c2cc3cc(OC(F)F)c(N4C(=O)NC(C)(C)C4=O)cc3[nH]2)c1N [Example 4-23-035, 3-[2-[5-amino-1-[4-(2-fluorophenoxy)-2-methylphenyl]pyrazole-4-carbonyl]-5-(difluoromethoxy)-1H-indol-6-yl]-5,5-dimethylimidazolidine-2,4-dione]"
31 nM,1 nM,6.4 nM,"Cc1cc(Oc2c(F)cccc2F)ncc1-n1ncc(C(=O)c2cc3cc(OCC(F)F)c(N4C(=O)C(C)(C)NC4=S)cc3[nH]2)c1N [Example 4-23-036, 3-{2-{5-amino-1-[6-(2,6-difluorophenoxy)-4-methylpyridin-3-yl]pyrazole-4-carbonyl}-5-(2,2-difluoroethoxy)-1H-indol-6-yl}-5,5-dimethyl-2-sulfanylideneimidazolidin-4-one]"
12 nM,0.76 nM,6.7 nM,"Cc1cc(Oc2ccccc2F)ccc1-n1ncc(C(=O)c2cc3cc(OCC(F)F)c(N4C(=O)C(C)(C)NC4=S)cc3[nH]2)c1N [Example 4-23-037, 3-[2-[5-amino-1-[4-(2-fluorophenoxy)-2-methylphenyl]pyrazole-4-carbonyl]-5-(2,2-difluoroethoxy)-1H-indol-6-yl]-5,5-dimethyl-2-sulfanylideneimidazolidin-4-one]"
71 nM,1.2 nM,10 nM,"Cc1cc(Oc2c(F)cccc2F)ncc1-n1ncc(C(=O)c2cc3cc(OC(F)F)c(N4C(=O)C(C)(C)NC4=S)cc3[nH]2)c1N [Example 4-23-038, 3-[2-[5-amino-1-[6-(2,6-difluorophenoxy)-4-methylpyridin-3-yl]pyrazole-4-carbonyl]-5-(difluoromethoxy)-1H-indol-6-yl]-5,5-dimethyl-2-sulfanylideneimidazolidin-4-one]"
60 nM,0.81 nM,16 nM,"Cc1cc(Oc2ccccc2F)ccc1-n1ncc(C(=O)c2cc3cc(OC(F)F)c(N4C(=O)C(C)(C)NC4=S)cc3[nH]2)c1N [Example 4-23-039, 3-[2-[5-amino-1-[4-(2-fluorophenoxy)-2-methylphenyl]pyrazole-4-carbonyl]-5-(difluoromethoxy)-1H-indol-6-yl]-5,5-dimethyl-2-sulfanylideneimidazolidin-4-one]"
110 nM,3.6 nM,36 nM,"Cc1cc(Oc2ccccc2F)ccc1-n1ncc(C(=O)c2cc3cc(OC(F)F)c(NS(=O)(=O)C4CC4)cc3[nH]2)c1N [Example 4-24-001, N-[2-[5-amino-1-[4-(2-fluorophenoxy)-2-methylphenyl]pyrazole-4-carbonyl]-5-(difluoromethoxy)-1H-indol-6-yl]cyclopropanesulfonamide]"
35 nM,1.6 nM,10 nM,"Cc1cc(Oc2ccccc2F)ccc1-n1ncc(C(=O)c2cc3cc(OC(F)F)c(NS(C)(=O)=O)cc3[nH]2)c1N [Example 4-24-002, N-[2-[5-amino-1-[4-(2-fluorophenoxy)-2-methylphenyl]pyrazole-4-carbonyl]-5-(difluoromethoxy)-1H-indol-6-yl]methanesulfonamide]"
55 nM,2.7 nM,25 nM,"Cc1cc(Oc2ccccc2F)ccc1-n1ncc(C(=O)c2cc3cc(OC(F)F)c(NS(=O)(=O)CCCF)cc3[nH]2)c1N [Example 4-24-003, N-[2-[5-amino-1-[4-(2-fluorophenoxy)-2-methylphenyl]pyrazole-4-carbonyl]-5-(difluoromethoxy)-1H-indol-6-yl]-3-fluoropropane-1-sulfonamide]"
41 nM,3.1 nM,17 nM,"Cc1cc(Oc2ccccc2F)ccc1-n1ncc(C(=O)c2cc3cc(OC(F)F)c(NS(=O)(=O)CCC(F)F)cc3[nH]2)c1N [Example 4-24-004, N-[2-[5-amino-1-[4-(2-fluorophenoxy)-2-methylphenyl]pyrazole-4-carbonyl]-5-(difluoromethoxy)-1H-indol-6-yl]-3,3-difluoropropane-1-sulfonamide]"
